These are literature values, as cited in patent publication US20050159419A1, “Compositions of a cyclooxygenase-2 selective inhibitor and a central nervous system stimulant for the treatment of central nervous system damage” (Pharmacia Corporation, priority 2003, published 2005).

One data set has as its system human stroke victims. To be noted: coupled with physical therapy, compared to stroke victims receiving only physical therapy.

`CC(N)Cc1ccccc1` (centres unmarked) [amphetamine]: the alternative circuit activation entry in the data set with infarcted rats is reported as “promoted alternative circuit activation”. The motor recovery entry in the data set with human stroke victims is reported as “accelerated motor recovery”.
